Reference: US8039635B2, “N-hydroxy-4-{5-[4-(5-isopropyl-2-methyl-1,3-thiazol-4-yl) phenoxy]pentoxy} benzamidine 2 ethansulfonic acid salt, process for the preparation thereof and pharmaceutical composition comprising the same” (Dong Wha Pharmaceutical Co., Ltd., priority 2007, dated 2011)
Where a name gives a salt, the structure may show the parent alone.

Tests used:
[1] = Pharmacokinetic evaluation (bioavailability) in SD rats; assay type: in vivo; settings: 50 mg/kg
Description: The N-hydroxy-4-{5-[4-(5-isopropyl-2-methyl-1,3-thiazol-4-yl)phenoxy]pentoxy}benzamidine 2 ethansulfonic acid salt prepared in Example 1, and the N-hydroxy-4-{5-[4-(5-isopropyl-2-methyl-1,3-thiazol-4-yl)phenoxy]pentoxy}benzamidine 2 methansulfonic acid salt prepared in Comparative Example 2 were individually administered to SD rats in a dosage of 50 mg/kg. At given time points (0, 0.5, 1, 1.5, 2, 3, 5 and 8 hrs), rats were mildly anesthetized with diethyl ether, and blood samples were collected from the orbital venous plexus and stored at −20° C. until concentration analysis. The plasma samples were mixed with an equal volume of an internal standard substance solution (prepared by dissolving betamethasone in acetonitrile to give a final concentration of 30 μg/ml) with agitation for 1 min, and was centrifuged at 12,000 rpm for 10 min. Active components of the plasma samples were analyzed by HPLC (Model: Waters Module 1). From the obtained data, pharmacokinetic parameters [maximum blood concentration (Cmax) and area under the blood concentration-time curve (AUC)] were calculated by noncompartment analysis using the WinNonlin program (Version 1.0, Scientific Consulting Inc., USA).

[2] = Evaluation of stability under accelerated conditions, HPLC content; assay type: physicochemical; settings: for change in content (stability in words): 60°C, 2 weeks; for Content: 60°C±2/75% RH±5, cap-opened vial
Description: The N-hydroxy-4-{5-[4-(5-isopropyl-2-methyl-1,3-thiazol-4-yl)phenoxy]pentoxy}benzamidine 2 ethansulfonic acid salt prepared in Example 1 was placed into a transparent glass vial, and stored at a cap-opened state under accelerated conditions (60° C.±2/75% RH±5) for a period of two weeks. Thereafter, the sample was analyzed by HPLC (Waters Module 1). The analysis was performed using a column packed with an octadecyl-silylated silica gel (Shiseido CAPCELL PAK C18, UG 120, Particle size 5 μm) under conditions: UV detection: 256 nm, injection volume: 10 μl, mobile-phase flow rate: 1.5 mL/min. The amount of the compound was calculated as an area percentage.

[3] = Evaluation of solubility in solvents at room temperature; assay type: physicochemical
Excerpt: The N-hydroxy-4-{5-[4-(5-isopropyl-2-methyl-1,3-thiazol-4-yl)phenoxy]pentoxy}benzamidine 2 ethansulfonic acid salt prepared in Example 1, the N-hydroxy-4-{5-[4-(5-isopropyl-2-methyl-1,3-thiazol-4-yl)phenoxy]pentoxy}benzamidine prepared in Comparative Example 1, and the N-hydroxy-4-{5-[4-(5-isopropyl-2-methyl-1,3-thiazol-4-yl)phenoxy]pentoxy}benzamidine 2 methansulfonic acid salt prepared in Comparative Example 2 were examined for solubility (μg/ml) in various solvents at room temperature.

[4] = Evaluation of release rate in buffer solution (pH 1.2), paddle 50 rpm; assay type: physicochemical; settings: for release rate: buffer pH 1.2, paddle 50 rpm
Excerpt: The N-hydroxy-4-{5-[4-(5-isopropyl-2-methyl-1,3-thiazol-4-yl)phenoxy]pentoxy}benzamidine 2 ethansulfonic acid salt prepared in Example 1, the N-hydroxy-4-{5-[4-(5-isopropyl-2-methyl-1,3-thiazol-4-yl)phenoxy]pentoxy}benzamidine prepared in Comparative Example 1, and the N-hydroxy-4-{5-[4-(5-isopropyl-2-methyl-1,3-thiazol-4-yl)phenoxy]pentoxy}benzamidine 2 methansulfonic acid salt prepared in Comparative Example 2 were examined for release rate (%) in a buffer solution (pH 1.2) at a paddle rotation speed of 50 rpm.

ovalbumin-induced asthma = settings: asthmatic mice, cited from earlier work
callus / bone fractures = settings: rats, vs untreated control; cited from earlier work
[5] = dose-dependent, vs control group

Compound: Cc1nc(-c2ccc(OCCCCCOc3ccc(C(=N)NO)cc3)cc2)c(C(C)C)s1 [2 Ethansulfonic acid salt, N-hydroxy-4-{5-[4-(5-isopropyl-2-methyl-1,3-thiazol-4-yl)phenoxy]pentoxy}benzamidine 2 ethansulfonic acid salt]
- AUC ([1]; SD, rat, in vivo): 10800 ± 833 ng·h/mL
- AUC, fold higher than 2 methanesulfonic acid salt ([1]; SD, rat, in vivo): about 1.2 fold
- Cmax ([1]; SD, rat, in vivo): 2360 ± 183 ng/mL
- Cmax, fold higher than 2 methanesulfonic acid salt ([1]; SD, rat, in vivo): 1.3 fold
- Tmax ([1]; SD, rat, in vivo): 2.13 ± 0.63 h
- Tmax, fold faster than 2 methanesulfonic acid salt ([1]; SD, rat, in vivo): 1.4 fold
- change in content (stability in words) [2]: no change in content
- change in content (stability in words) ([2]; listed as 2 ethanesulfonic acid salt): no change in its content
- Content ([2]; after 1 week): 99.88%
- Content ([2]; after 2 weeks): 99.86%
- Content ([2]; early stage): 100.00%
- solubility ([3]; water): 4420 µg/mL
- release rate ([4]; 5 min): 14.8%
- release rate ([4]; 10 min): 20.5%
- release rate ([4]; 15 min): 24.2%
- release rate ([4]; 30 min): 31.3%
- release rate, fold higher than 2 methanesulfonic acid salt ([4]; after 5 min): about 2.8 fold
- release rate, fold higher than 2 methanesulfonic acid salt ([4]; after 10 min): about 1.4 fold
- release rate, fold higher than 2 methanesulfonic acid salt ([4]; after 15 min): about 1.2 fold

Compound: CS(=O)(=O)O.CS(=O)(=O)O.Cc1nc(-c2ccc(OCCCCCOc3ccc(C(=N)NO)cc3)cc2)c(C(C)C)s1 [2 Methansulfonic acid salt, N-hydroxy-4-{5-[4-(5-isopropyl-2-methyl-1,3-thiazol-4-yl)phenoxy]pentoxy}benzamidine 2 methansulfonic acid salt]
- AUC (area under the blood concentration-time curve) ([1]; SD rats): 8970 ± 3090 ng·h/mL
- Cmax (maximum blood concentration) ([1]; SD rats): 1792 ± 912 ng/mL
- Tmax (time to reach maximum plasma concentration) ([1]; SD rats): 3.00 ± 1.63 h
- solubility ([3]; distilled water, room temperature): 3,535 μg/ml
- release rate ([4]; 5 min): 5.3%
- release rate ([4]; 10 min): 13.9%
- release rate ([4]; 15 min): 20.1%
- release rate ([4]; 30 min): 34.3%

Compound: Cc1nc(-c2ccc(OCCCCCOc3ccc(C(=N)NO)cc3)cc2)c(C(C)C)s1 [free base, N-hydroxy-4-{5-[4-(5-isopropyl-2-methyl-1,3-thiazol-4-yl)phenoxy]pentoxy}benzamidine]
- number of eosinophils in bronchoalveolar lavage fluid (ovalbumin-induced asthma; [5]): significantly decreased
- total number of leukocytes and number of eosinophils (peripheral blood) (ovalbumin-induced asthma; [5]): significantly decreased
- increase in lung weight (ovalbumin-induced asthma; oral, 18 days, vs control given sterile distilled water): suppressed the increase in lung weight
- alveolar area (ovalbumin-induced asthma; vs control group): significantly increased
- bone mineral content and mechanical strength of callus (callus / bone fractures): significantly enhanced
- bone tissue density (callus / bone fractures): significantly increased
- callus volume (callus / bone fractures): significantly reduced
- content of connective and soft tissues in the callus tissue (callus / bone fractures): significantly reduced
- release rate ([4]; 5 min): 1.2%
- release rate ([4]; 10 min): 3.5%
- release rate ([4]; 15 min): 7.9%
- release rate ([4]; 30 min): 21.3%
